# Experimental data taken from US20220218664A1, “DRUG AND METHOD FOR TREATING OR PREVENTING COMPLICATIONS FROM DIABETES, USING SAID DRUG” (TMS Co., Ltd., priority 2019, published 2022).
# Assays:
# [1] = Body weight in diabetic nephropathy model mice; type: in vivo, Male db/db mice; conditions: 30 mg/kg i.p. once every two days for 10 weeks; 16 weeks old
# [2] = system: diabetic nephropathy model mice; experiment: Urine volume (24 h, metabolic cage); type: in vivo, Male db/db mice; conditions: 30 mg/kg i.p. once every two days for 10 weeks; 16 weeks old; 24 h urine
smiles,measurement,setting,value
CC(C)=CCCC(C)=CCCC1(C)Oc2c(c(O)cc3c2CN(C(C(=O)O)c2ccc(O)cc2)C3=O)CC1O (centres unmarked) [SMTP-44D],Body weight compared to the DN group,[1],No significant changes
same,Urine volume,[2],1268.3 ± 137.4 µL
